Usually IC50 stands for the concentration that inhibits the measured activity by half. The low end stands for greater potency, the high end for weaker potency. What is called DC50 is the concentration at which degradation of the target reaches its halfway point. A higher DC50 goes with degradation only at high concentration.

This note sets out measurements from US20250092039A1, “GLUTARIMIDE-CONTAINING PAN-KRAS-MUTANT DEGRADER COMPOUNDS AND USES THEREOF” (Tiger Biotherapeutics Inc., priority 2022, published 2025).

One assay has as its target KRAS-G12V/RAF1 (Homo sapiens (Human), UniProt P01116, G12V). Put plainly: KRAS/RAF1 binding inhibition assay (AlphaScreen). The method, then:
Binding affinity against GTP-bound KRAS of the compounds disclosed herein was measured by monitoring the interaction of guanosine 5′-[β,γ-imido]triphosphate-bound (GppNHp-bound) KRAS with the RBD domain of RAF1 in the presence of the test compound. […] The test compounds in 2% DMSO (final concentration) at various concentrations were then added to the reaction mixture and incubated for 60 minutes at 4° C.
Raw ALphaScreen data were converted to a percentage of inhibition (relative to DMSO) using the following equations: • a) For a given test compound concentration X: […]
The IC50 values were determined by nonlinear regression of plots of [inhibitor] vs. percentage of inhibition with variable slope, analyzed using GraphPad Prism (Version 9).
(In Alpha technology, singlet oxygen from a donor bead excites a nearby acceptor bead.)

Another assay concerns the target KRAS G12V (Homo sapiens (Human), UniProt P01116, G12V). The assay is described as follows: KRAS G12V degradation in SW620 cells (Western blot, DC50). Format: cell-based. Particulars: 24 hours. On the procedure:
SW620 (KRAS G12V homozygous), AsPC1 (KRAS G12D homozygous), MIA PaCa2 (KRAS G12C homozygous), A549 (KRAS G12S homozygous) and MCF7 (KRAS WT) cells were obtained from American Type Culture Collection (ATCC). […] The following day, the test compound was administered to the cells by using 1000× compound stock solution prepared in DMSO at various concentrations. After administration of the compound, the cells were then incubated at 37° C. for 24 hours. Upon completion, the cells were washed with PBS and protein was collected in Laemmli sample buffer (1×; VWR International). Proteins in cell lysate were separated by SDS-PAGE and transferred to Odyssey nitrocellulose membranes (Licor) with iblot® dry blotting transfer system (ThermoFisher). Nonspecific binding was blocked by incubating membranes with Intercept Blocking Buffer (Licor) for 1 hour at room temperature with gentle shaking. […] After washing 3 times with TBS-T, the membranes were incubated with IRDye® 800CW goat anti-rabbit IgG (1:20,000, Licor) and IRDye® 680RD goat anti-mouse IgG (1:20,000, Licor) for 1 hour. After TBS-T washes, membranes were rinsed in TBS and Western blot images were acquired by Odyssey CLx (LI-COR Biosciences).
The signal intensity of target proteins was calculated using ImageStudio software. KRAS fluorescent intensity (FLU) from DMSO (vehicle) treatment was set as 100%. Relative KRAS expression level was determined by the following formula: […]
The percentage of KRAS expression was calculated using Microsoft Excel. The half-maximal degradation concentration (DCso) values were generated by GraphPad Prism (Version 9) using the dose-response equation of variable slope (four parameters).
Background: Immunoblotting shows a protein as a band on a membrane.

Chain of KRAS G12V (P01116-2 other isoform, or with tags, fused parts or gaps G12V): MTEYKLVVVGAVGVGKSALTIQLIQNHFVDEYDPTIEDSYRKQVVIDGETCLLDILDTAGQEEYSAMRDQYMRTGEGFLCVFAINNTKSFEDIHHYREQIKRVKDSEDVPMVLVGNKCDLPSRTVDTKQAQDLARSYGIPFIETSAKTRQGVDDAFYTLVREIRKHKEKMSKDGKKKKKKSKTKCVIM
Chain of KRAS-G12V/RAF1 (P01116-2 other isoform, or with tags, fused parts or gaps G12V): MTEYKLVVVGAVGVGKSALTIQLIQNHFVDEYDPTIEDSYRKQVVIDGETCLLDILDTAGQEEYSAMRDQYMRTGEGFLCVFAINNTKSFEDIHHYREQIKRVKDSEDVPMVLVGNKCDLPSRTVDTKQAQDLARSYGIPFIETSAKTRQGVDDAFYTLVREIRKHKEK

`CCc1c(F)ccc2cc(O)cc(-c3ncc4c(N5CCCC6(CC(O)C6)C5)nc(OCC5(CN6CCC(CN7CCN(c8ccc9c(c8)CN([C@H]8CCC(=O)NC8=O)C9=O)CC7)CC6)CC5)nc4c3F)c12` (stereo partly drawn) [Compound 98, (S)-3-(5-(4-((1-((1-(((7-(8-ethyl-7-fluoro-3-hydroxynaphthalen-1-yl)-8-fluoro-4-(2-hydroxy-6-azaspiro[3.5]nonan-6-yl)pyrido[4,3-d]pyrimidin-2-yl)oxy)methyl)cyclopropyl)methyl)piperidin-4-yl)methyl)piperazin-1-yl)-1-oxoisoindolin-2-yl)piperidine-2,6-dione]: the IC50 on KRAS-G12V/RAF1 is greater than 200 nM. At KRAS G12V, this compound returned a DC50 of 1 to 10 nM.
`CCc1c(F)ccc2cc(O)cc(-c3ncc4c(N5CCC[C@]6(C5)C[C@H](O)C6)nc(OCC5(CN6CCC7(CC6)CC(CN6CCN(c8ccc9c(c8)CN([C@H]8CCC(=O)NC8=O)C9=O)CC6)C7)CC5)nc4c3F)c12` [Compound 99, (S)-3-(5-(4-((7-((1-(((7-(8-ethyl-7-fluoro-3-hydroxynaphthalen-1-yl)-8-fluoro-4-((2s,4r)-2-hydroxy-6-azaspiro[3.5]nonan-6-yl)pyrido[4,3-d]pyrimidin-2-yl)oxy)methyl)cyclopropyl)methyl)-7-azaspiro[3.5]nonan-2-yl)methyl)piperazin-1-yl)-1-oxoisoindolin-2-yl)piperidine-2,6-dione]: the IC50 on KRAS-G12V/RAF1 lay in the range of 20 to 200 nM. The same compound gave a DC50 at KRAS G12V greater than 100 nM.
In turn, `CCc1c(F)ccc2cc(O)cc(-c3ncc4c(N5CCC[C@]6(C5)C[C@@H](O)C6)nc(OCC5(CN6CCC7(CC6)CC(CN6CCN(c8ccc9c(c8)CN([C@H]8CCC(=O)NC8=O)C9=O)CC6)C7)CC5)nc4c3F)c12` [Compound 100, (S)-3-(5-(4-((7-((1-(((7-(8-ethyl-7-fluoro-3-hydroxynaphthalen-1-yl)-8-fluoro-4-((2r,4s)-2-hydroxy-6-azaspiro[3.5]nonan-6-yl)pyrido[4,3-d]pyrimidin-2-yl)oxy)methyl)cyclopropyl)methyl)-7-azaspiro[3.5]nonan-2-yl)methyl)piperazin-1-yl)-1-oxoisoindolin-2-yl)piperidine-2,6-dione] showed an IC50 on KRAS-G12V/RAF1 of 20 to 200 nM. Moreover, the 50% degradation concentration (DC50) on KRAS G12V is greater than 100 nM.
For `CCc1cccc2cc(O)cc(-c3ncc4c(N5C[C@@H]6C[C@H](C5)[C@H](O)C6)nc(OCC5(CN6CCC7(CC6)CC(CN6CCN(c8ccc9c(c8)CN([C@H]8CCC(=O)NC8=O)C9=O)CC6)C7)CC5)nc4c3F)c12` [Compound 101, (S)-3-(5-(4-((7-((1-(((7-(8-ethyl-3-hydroxynaphthalen-1-yl)-8-fluoro-4-((1R,5R,6R)-6-hydroxy-3-azabicyclo[3.2.1]octan-3-yl)pyrido[4,3-d]pyrimidin-2-yl)oxy)methyl)cyclopropyl)methyl)-7-azaspiro[3.5]nonan-2-yl)methyl)piperazin-1-yl)-1-oxoisoindolin-2-yl)piperidine-2,6-dione], the IC50 at KRAS-G12V/RAF1 was greater than 200 nM. The compound further showed a half-maximal degradation concentration (DC50) at KRAS G12V of less than 1 nM.
For `CCc1cccc2cc(O)cc(-c3ncc4c(N5CCCn6nc(C(=O)N(C)C)c(Cl)c6C5)nc(OCC5(CN6CCC7(CC6)CC(CN6CCN(c8ccc9c(c8)CN([C@H]8CCC(=O)NC8=O)C9=O)CC6)C7)CC5)nc4c3F)c12` [Compound 102, (S)-3-chloro-5-(2-((1-((2-((4-(2-(2,6-dioxopiperidin-3-yl)-1-oxoisoindolin-5-yl)piperazin-1-yl)methyl)-7-azaspiro[3.5]nonan-7-yl)methyl)cyclopropyl)methoxy)-7-(8-ethyl-3-hydroxynaphthalen-1-yl)-8-fluoropyrido[4,3-d]pyrimidin-4-yl)-N,N-dimethyl-5,6,7,8-tetrahydro-4H-pyrazolo[1,5-a][1,4]diazepine-2-carboxamide] the same measures were greater than 200 nM and less than 1 nM.
As to `C[C@@]1(O)CCCN(c2nc(OCC3(CN4CCC5(CC4)CC(CN4CCN(c6ccc7c(c6)CN([C@H]6CCC(=O)NC6=O)C7=O)CC4)C5)CC3)nc3c(F)c(-c4cc(O)cc5ccc(F)c(F)c45)ncc23)C1` [Compound 103, (S)-3-(5-(4-((7-((1-(((7-(7,8-difluoro-3-hydroxynaphthalen-1-yl)-8-fluoro-4-((R)-3-hydroxy-3-methylpiperidin-1-yl)pyrido[4,3-d]pyrimidin-2-yl)oxy)methyl)cyclopropyl)methyl)-7-azaspiro[3.5]nonan-2-yl)methyl)piperazin-1-yl)-1-oxoisoindolin-2-yl)piperidine-2,6-dione], on KRAS-G12V/RAF1, the half-inhibitory concentration (IC50) is 20 to 200 nM. This compound registered a 50% degradation concentration (DC50) at KRAS G12V of less than 1 nM.
With `CCc1cccc2cc(O)cc(-c3ncc4c(N5CCOC[C@@](C)(O)C5)nc(OCC5(CN6CCC7(CC6)CC(CN6CCN(c8ccc9c(c8)CN([C@H]8CCC(=O)NC8=O)C9=O)CC6)C7)CC5)nc4c3F)c12` [Compound 106, (S)-3-(5-(4-((7-((1-(((7-(8-ethyl-3-hydroxynaphthalen-1-yl)-8-fluoro-4-((S)-6-hydroxy-6-methyl-1,4-oxazepan-4-yl)pyrido[4,3-d]pyrimidin-2-yl)oxy)methyl)cyclopropyl)methyl)-7-azaspiro[3.5]nonan-2-yl)methyl)piperazin-1-yl)-1-oxoisoindolin-2-yl)piperidine-2,6-dione], on KRAS-G12V/RAF1, the IC50 fell in the range of 20 to 200 nM. Further, on KRAS G12V, the DC50 lay within 1 to 10 nM.
The compound `CCc1cccc2cc(O)cc(-c3ncc4c(N5CCOC[C@](C)(O)C5)nc(OCC5(CN6CCC7(CC6)CC(CN6CCN(c8ccc9c(c8)CN([C@H]8CCC(=O)NC8=O)C9=O)CC6)C7)CC5)nc4c3F)c12` [Compound 107, (S)-3-(5-(4-((7-((1-(((7-(8-ethyl-3-hydroxynaphthalen-1-yl)-8-fluoro-4-((R)-6-hydroxy-6-methyl-1,4-oxazepan-4-yl)pyrido[4,3-d]pyrimidin-2-yl)oxy)methyl)cyclopropyl)methyl)-7-azaspiro[3.5]nonan-2-yl)methyl)piperazin-1-yl)-1-oxoisoindolin-2-yl)piperidine-2.6-dione] displayed a half-maximal inhibitory concentration (IC50) on KRAS-G12V/RAF1 greater than 200 nM. The compound also yielded a DC50 on KRAS G12V greater than 100 nM.
`C[C@@]1(O)CCCN(c2nc(OCC3(CN4CCC(CN5CCN(c6ccc7c(c6)CN([C@H]6CCC(=O)NC6=O)C7=O)CC5)CC4)CC3)nc3c(F)c(-c4cc(O)cc5ccc(F)c(F)c45)ncc23)C1` [Compound 111, (S)-3-(5-(4-((1-((1-(((7-(7,8-difluoro-3-hydroxynaphthalen-1-yl)-8-fluoro-4-((R)-3-hydroxy-3-methylpiperidin-1-yl)pyrido[4,3-d]pyrimidin-2-yl)oxy)methyl)cyclopropyl)methyl)piperidin-4-yl)methyl)piperazin-1-yl)-1-oxoisoindolin-2-yl)piperidine-2,6-dione] gave an IC50 at KRAS-G12V/RAF1 of 20 to 200 nM. The compound further registered a DC50 on KRAS G12V of 1 to 10 nM.
With `CCc1c(F)ccc2cc(O)cc(-c3ncc4c(N5CCOC[C@](C)(O)C5)nc(OCC5(CN6CCC(CN7CCN(c8ccc9c(c8)CN([C@H]8CCC(=O)NC8=O)C9=O)CC7)CC6)CC5)nc4c3F)c12` [Compound 112, (S)-3-(5-(4-((1-((1-(((7-(8-ethyl-7-fluoro-3-hydroxynaphthalen-1-yl)-8-fluoro-4-((R)-6-hydroxy-6-methyl-1,4-oxazepan-4-yl)pyrido[4,3-d]pyrimidin-2-yl)oxy)methyl)cyclopropyl)methyl)piperidin-4-yl)methyl)piperazin-1-yl)-1-oxoisoindolin-2-yl)piperidine-2,6-dione], at KRAS-G12V/RAF1, the IC50 was greater than 200 nM. The DC50 at KRAS G12V was greater than 100 nM.
The compound `CCc1c(F)ccc2cc(O)cc(-c3ncc4c(N5CCOC[C@](C)(O)C5)nc(OCC5(CN6CCC7(CC6)CC(CN6CCN(c8ccc9c(c8)CN([C@H]8CCC(=O)NC8=O)C9=O)CC6)C7)CC5)nc4c3F)c12` [Compound 113, (S)-3-(5-(4-((7-((1-(((7-(8-ethyl-7-fluoro-3-hydroxynaphthalen-1-yl)-8-fluoro-4-((R)-6-hydroxy-6-methyl-1,4-oxazepan-4-yl)pyrido[4,3-d]pyrimidin-2-yl)oxy)methyl)cyclopropyl)methyl)-7-azaspiro[3.5]nonan-2-yl)methyl)piperazin-1-yl)-1-oxoisoindolin-2-yl)piperidine-2,6-dione] returned a concentration for half-maximal inhibition (IC50) at KRAS-G12V/RAF1 greater than 200 nM. On KRAS G12V, this compound yielded a DC50 greater than 100 nM.
With `CCc1c(F)ccc2cc(O)cc(-c3ncc4c(N5CCCC(C)(F)C5)nc(OCC5(CN6CCC7(CC6)CC(CN6CCN(c8ccc9c(c8)CN([C@H]8CCC(=O)NC8=O)C9=O)CC6)C7)CC5)nc4c3F)c12` (stereo partly drawn) [Compound 132, (3S)-3-(5-(4-((7-((1-(((7-(8-ethyl-7-fluoro-3-hydroxynaphthalen-1-yl)-8-fluoro-4-(3-fluoro-3-methylpiperidin-1-yl)pyrido[4,3-d]pyrimidin-2-yl)oxy)methyl)cyclopropyl)methyl)-7-azaspiro[3.5]nonan-2-yl)methyl)piperazin-1-yl)-1-oxoisoindolin-2-yl)piperidine-2,6-dione], the IC50 at KRAS-G12V/RAF1 is greater than 200 nM. The 50% degradation concentration (DC50) at KRAS G12V is greater than 100 nM.
